Measurements published in ChEMBL document CHEMBL1146397, “Isolation and structure determination of sulfonoquinovosyl dipalmitoyl glyceride, a P-selectin receptor inhibitor from the alga Dictyochloris fragrans” (J Nat Prod, 1997).
Active and inactive are the calls of the source. The rule behind the calls is not given here.

Tests used:
Format in all cases: cell-based
[1] = target: T1, P-selectin (Homo sapiens) (UniProt P16109); assay: (§1) Displacement of immobilized sulfatide from P-selectin transfected in african green monkey COS cells by IgG-based competitive ELISA
T1 sequence (whole entry): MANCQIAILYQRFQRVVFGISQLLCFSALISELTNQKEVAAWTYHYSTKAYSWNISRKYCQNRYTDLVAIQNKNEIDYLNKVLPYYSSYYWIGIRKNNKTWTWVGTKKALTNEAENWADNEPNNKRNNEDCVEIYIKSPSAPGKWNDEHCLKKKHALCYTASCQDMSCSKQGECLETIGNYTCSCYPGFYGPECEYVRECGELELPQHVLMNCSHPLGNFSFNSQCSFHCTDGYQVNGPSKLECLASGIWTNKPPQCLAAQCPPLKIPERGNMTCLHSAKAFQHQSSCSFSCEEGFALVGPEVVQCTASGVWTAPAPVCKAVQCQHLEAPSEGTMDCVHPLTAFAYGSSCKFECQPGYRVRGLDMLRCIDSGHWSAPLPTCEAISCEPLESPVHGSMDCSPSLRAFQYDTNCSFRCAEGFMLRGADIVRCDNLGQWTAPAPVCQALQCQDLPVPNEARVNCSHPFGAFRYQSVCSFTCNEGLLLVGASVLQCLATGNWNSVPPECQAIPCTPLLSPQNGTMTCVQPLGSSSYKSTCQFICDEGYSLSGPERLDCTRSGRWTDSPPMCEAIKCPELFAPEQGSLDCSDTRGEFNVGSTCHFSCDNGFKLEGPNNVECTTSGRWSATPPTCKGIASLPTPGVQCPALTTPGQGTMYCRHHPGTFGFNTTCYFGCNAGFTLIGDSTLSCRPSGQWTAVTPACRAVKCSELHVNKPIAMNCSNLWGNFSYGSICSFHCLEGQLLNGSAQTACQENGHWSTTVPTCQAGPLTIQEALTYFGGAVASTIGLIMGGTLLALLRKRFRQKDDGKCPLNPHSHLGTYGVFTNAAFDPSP

[2] = target: T1, P-selectin (Homo sapiens); assay: Inhibition of human P-selectin-dependent adhesion of activated platelets to HL60 cells after 30 mins by flow cytometry; settings: HL-60
P-selectin = target: T2, P-selectin (Homo sapiens, UniProt P16109); assay: as §1
T2 sequence (P16109 whole entry): T1 sequence (whole entry)

[3] = Inhibition of human P-selectin receptor globulin adhesion to HL60 cells; settings: HL-60

**Q.** Which Activity [1] does the source give for `CCCCCCCCCCCCCC(=O)OCC(COP(=O)(O)OCCN)OC(=O)CCCCCCCCCCCCC` (stereo unspecified) here?
**A.** inactive

**Q.** For `CCCCC/C=C/C/C=C/CCCCCCCC(=O)OC(COC(=O)CCCCCCCCCCCCCCC)COP(=O)(O)OCC(O)CO` (stereo unspecified) [PHOSPHATIDYL GLYCEROL], which inhibition [2] is on record?
**A.** 0%

**Q.** And the IC50 (P-selectin)?
**A.** 1 µM

**Q.** What does the source list for `CCCCCCCCCCCCCCCC(=O)OCC(CO[C@H]1O[C@H](CS(=O)(=O)O)[C@@H](O)[C@H](O)[C@H]1O)OC(=O)CCCCCCCCCCCCCCC` (stereo partly specified) [SULFONOQUINOVOSYL DIPALMITOYL GLYCERIDE]?
**A.** inhibition [2]: 24%; IC50 (P-selectin): 5 µM; IC50 [3]: 40 µM
